Measurements as given in ChEMBL document CHEMBL3046897, “Synthesis of 3-{4-[4-dimethylamino-6-(4-methyl-2-oxo-2H-chromen-7-yloxy)-[1,3,5]triazin-2-ylamino]-phenyl}-2-phenyl-5-(4-pyridin-2-yl-piperazin-1-ylmethyl)-thiazolidin-4-one and their biological evaluation” (2012).
Values after ≈ are worked out from the molar mass of the structure shown.

How the values were obtained:
Type in all cases: functional
[1] = system: Shigella flexneri; test: Antibacterial activity against Shigella flexneri after 24 hr by agar streak dilution method
[2] = system: Proteus vulgaris; test: Antibacterial activity against Proteus vulgaris after 24 hr by agar streak dilution method
[3] = system: Salmonella typhi; test: Antibacterial activity against Salmonella enterica subsp. enterica serovar Typhi after 24 hr by agar streak dilution method
[4] = system: Klebsiella pneumoniae; test: Antibacterial activity against Klebsiella pneumoniae after 24 hr by agar streak dilution method
[5] = system: Candida albicans; test: Antifungal activity against Candida albicans at 100 ug/disk after 48 hr by paper disk diffusion method; conditions: read-out: IZ
[6] = system: Aspergillus clavatus; test: Antifungal activity against Aspergillus clavatus at 100 ug/disc after 48 hr by paper disk diffusion method; conditions: read-out: IZ
[7] = system: Aspergillus fumigatus; test: Antifungal activity against Aspergillus fumigatus at 100 ug/disc after 48 hr by paper disk diffusion method; conditions: read-out: IZ
[8] = system: Aspergillus niger; test: Antifungal activity against Aspergillus niger at 100 ug/disk after 48 hr by paper disk diffusion method; conditions: read-out: IZ
[9] = system: Candida albicans; test: Antifungal activity against Candida albicans after 48 hr by agar streak dilution method
[10] = system: Aspergillus clavatus; test: Antifungal activity against Aspergillus clavatus after 48 hr by agar streak dilution method
[11] = system: Aspergillus niger; test: Antifungal activity against Aspergillus niger after 48 hr by agar streak dilution method
[12] = system: Pseudomonas aeruginosa; test: Antibacterial activity against Pseudomonas aeruginosa after 24 hr by agar streak dilution method
[13] = system: Escherichia coli; test: Antibacterial activity against Escherichia coli after 24 hr by agar streak dilution method
[14] = system: Shigella flexneri; test: Antibacterial activity against Shigella flexneri at 100 ug/disc after 24 hr by paper disk diffusion method; conditions: read-out: IZ
[15] = system: Proteus vulgaris; test: Antibacterial activity against Proteus vulgaris at 100 ug/disk after 24 hr by paper disk diffusion method; conditions: read-out: IZ
[16] = system: Salmonella typhi; test: Antibacterial activity against Salmonella enterica subsp. enterica serovar Typhi at 100 ug/disk after 24 hr by paper disk diffusion method; conditions: read-out: IZ
[17] = system: Klebsiella pneumoniae; test: Antibacterial activity against Klebsiella pneumoniae at 100 ug/disk after 24 hr by paper disk diffusion method; conditions: read-out: IZ
[18] = system: Pseudomonas aeruginosa; test: Antibacterial activity against Pseudomonas aeruginosa at 100 ug/disk after 24 hr by paper disk diffusion method; conditions: read-out: IZ
[19] = system: Escherichia coli; test: Antibacterial activity against Escherichia coli at 100 ug/disk after 24 hr by paper disk diffusion method; conditions: read-out: IZ
[20] = system: Bacillus subtilis; test: Antibacterial activity against Bacillus subtilis after 24 hr by agar streak dilution method
[21] = system: Staphylococcus aureus; test: Antibacterial activity against Staphylococcus aureus after 24 hr by agar streak dilution method
[22] = system: Bacillus subtilis; test: Antibacterial activity against Bacillus subtilis at 100 ug/disk after 24 hr by paper disk diffusion method; conditions: read-out: IZ
[23] = system: Staphylococcus aureus; test: Antibacterial activity against Staphylococcus aureus at 100 ug/disc after 24 hr by paper disk diffusion method; conditions: read-out: IZ
[24] = system: Aspergillus fumigatus; test: Antifungal activity against Aspergillus fumigatus after 48 hr by agar streak dilution method

SMILES	MIC [1] [µg/mL]	MIC [2] [µg/mL]	MIC [3] [µg/mL]	MIC [4] [µg/mL]	zone of inhibition at 100 µg/disc [5] [mm]	zone of inhibition at 100 µg/disc [6] [mm]	zone of inhibition at 100 µg/disc [7] [mm]	zone of inhibition at 100 µg/disc [8] [mm]	MIC [9] [µg/mL]	MIC [10] [µg/mL]	MIC [11] [µg/mL]	MIC [12] [µg/mL]	MIC [13] [µg/mL]	zone of inhibition at 100 µg/disc [14] [mm]	zone of inhibition at 100 µg/disc [15] [mm]	zone of inhibition at 100 µg/disc [16] [mm]	zone of inhibition at 100 µg/disc [17] [mm]	zone of inhibition at 100 µg/disc [18] [mm]	zone of inhibition at 100 µg/disc [19] [mm]	MIC [20] [µg/mL]	further results
Cc1cc(=O)oc2cc(Oc3nc(Nc4ccc(N5C(=O)C(CN6CCN(c7ccccn7)CC6)SC5c5ccccc5)cc4)nc(N(C)C)n3)ccc12 (stereo not given)	100 (≈ 135 µM)	100 (≈ 135 µM)	100 (≈ 135 µM)	100 (≈ 135 µM)	12	16	< 10	14	100 (≈ 135 µM)	100 (≈ 135 µM)	100 (≈ 135 µM)	50 (≈ 67.4 µM)	100 (≈ 135 µM)	15	13	14	13	19	16	100 (≈ 135 µM)	MIC [21]: 100 µg/mL (≈ 135 µM); zone of inhibition at 100 µg/disc [22]: 16 mm; zone of inhibition at 100 µg/disc [23]: 14 mm; MIC [24]: 100 µg/mL (≈ 135 µM)
Cc1cc(=O)oc2cc(Oc3nc(Nc4ccc(N5C(=O)CSC5c5ccc(Cl)cc5Cl)cc4)nc(N(C)C)n3)ccc12 (stereo not given)	50 (≈ 78.7 µM)	50 (≈ 78.7 µM)	100 (≈ 157 µM)	50 (≈ 78.7 µM)	16	19	17	14	100 (≈ 157 µM)	50 (≈ 78.7 µM)	100 (≈ 157 µM)	50 (≈ 78.7 µM)	50 (≈ 78.7 µM)	17	18	16	19	16	17	50 (≈ 78.7 µM)	MIC [21]: 50 µg/mL (≈ 78.7 µM); zone of inhibition at 100 µg/disc [22]: 19 mm; zone of inhibition at 100 µg/disc [23]: 17 mm; MIC [24]: 50 µg/mL (≈ 78.7 µM)
Cc1cc(=O)oc2cc(Oc3nc(Nc4ccc(N5C(=O)C(CN6CCN(c7ccccn7)CC6)SC5c5ccc(Cl)cc5)cc4)nc(N(C)C)n3)ccc12 (stereo not given)	6.25 (≈ 8.05 µM)	12.5 (≈ 16.1 µM)	12.5 (≈ 16.1 µM)	25 (≈ 32.2 µM)	26	25	21	18	6.25 (≈ 8.05 µM)	12.5 (≈ 16.1 µM)	50 (≈ 64.4 µM)	50 (≈ 64.4 µM)	50 (≈ 64.4 µM)	27	25	24	22	18	23	50 (≈ 64.4 µM)	MIC [21]: 25 µg/mL (≈ 32.2 µM); zone of inhibition at 100 µg/disc [22]: 18 mm; zone of inhibition at 100 µg/disc [23]: 21 mm; MIC [24]: 12.5 µg/mL (≈ 16.1 µM)
Cc1cc(=O)oc2cc(Oc3nc(Nc4ccc(N5C(=O)CSC5c5cccc(F)c5)cc4)nc(N(C)C)n3)ccc12 (stereo not given)	25 (≈ 42.8 µM)	50 (≈ 85.5 µM)	25 (≈ 42.8 µM)	50 (≈ 85.5 µM)	18	21	17	20	50 (≈ 85.5 µM)	25 (≈ 42.8 µM)	25 (≈ 42.8 µM)	50 (≈ 85.5 µM)	25 (≈ 42.8 µM)	22	17	20	18	19	23	50 (≈ 85.5 µM)	MIC [21]: 50 µg/mL (≈ 85.5 µM); zone of inhibition at 100 µg/disc [22]: 19 mm; zone of inhibition at 100 µg/disc [23]: 17 mm; MIC [24]: 50 µg/mL (≈ 85.5 µM)
Cc1cc(=O)oc2cc(Oc3nc(Nc4ccc(N5C(=O)C(CN6CCN(c7ccccn7)CC6)SC5c5cccc(F)c5)cc4)nc(N(C)C)n3)ccc12 (stereo not given)	12.5 (≈ 16.5 µM)	50 (≈ 65.8 µM)	25 (≈ 32.9 µM)	50 (≈ 65.8 µM)	21	25	19	23	12.5 (≈ 16.5 µM)	12.5 (≈ 16.5 µM)	12.5 (≈ 16.5 µM)	25 (≈ 32.9 µM)	6.25 (≈ 8.23 µM)	25	21	23	20	21	28	12.5 (≈ 16.5 µM)	MIC [21]: 25 µg/mL (≈ 32.9 µM); zone of inhibition at 100 µg/disc [22]: 21 mm; zone of inhibition at 100 µg/disc [23]: 19 mm; MIC [24]: 25 µg/mL (≈ 32.9 µM)
